Laboratory results: ChEMBL document CHEMBL1136714 (J Med Chem, 2003)

What was measured:
[1] = molecular target: T1, Sodium-dependent dopamine transporter (Rattus norvegicus, UniProt P23977); assay: Inhibition of uptake from dopamine transporter in rat striatum using [3H]DA as radioligand; assay type: functional, tissue-based
[2] = molecular target: Norepinephrine transporter (Rattus norvegicus, UniProt Q9WTR4); assay: Binding affinity towards norepinephrine transporter in rat striatum using [3H]nisoxetine as radioligand; assay type: tissue-based
[3] = molecular target: Sodium-dependent serotonin transporter (Rattus norvegicus, UniProt P31652); assay: Binding affinity towards serotonin transporter in rat striatum using [3H]citalopram as radioligand; assay type: tissue-based
[4] = molecular target: T1, Sodium-dependent dopamine transporter; assay: Binding affinity towards dopamine transporter in rat striatum using [3H]WIN-35 428 as radioligand; assay type: tissue-based

Chain of Norepinephrine transporter (Q9WTR4 whole entry): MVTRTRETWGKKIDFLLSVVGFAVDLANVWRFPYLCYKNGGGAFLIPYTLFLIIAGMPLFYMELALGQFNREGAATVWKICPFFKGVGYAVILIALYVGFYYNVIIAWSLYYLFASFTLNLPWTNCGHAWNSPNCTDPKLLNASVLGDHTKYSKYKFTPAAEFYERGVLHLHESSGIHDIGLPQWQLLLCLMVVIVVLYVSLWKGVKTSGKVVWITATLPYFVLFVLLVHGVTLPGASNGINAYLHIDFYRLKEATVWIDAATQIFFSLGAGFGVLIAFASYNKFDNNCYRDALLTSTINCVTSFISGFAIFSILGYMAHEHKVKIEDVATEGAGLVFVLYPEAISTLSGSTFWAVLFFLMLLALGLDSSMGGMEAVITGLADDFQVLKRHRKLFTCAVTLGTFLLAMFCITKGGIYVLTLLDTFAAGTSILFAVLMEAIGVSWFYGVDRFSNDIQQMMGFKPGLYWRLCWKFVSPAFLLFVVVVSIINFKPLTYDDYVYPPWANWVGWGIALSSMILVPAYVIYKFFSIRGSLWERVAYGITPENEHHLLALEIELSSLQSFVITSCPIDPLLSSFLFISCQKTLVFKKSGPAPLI
Chain of Sodium-dependent serotonin transporter (P31652 whole entry): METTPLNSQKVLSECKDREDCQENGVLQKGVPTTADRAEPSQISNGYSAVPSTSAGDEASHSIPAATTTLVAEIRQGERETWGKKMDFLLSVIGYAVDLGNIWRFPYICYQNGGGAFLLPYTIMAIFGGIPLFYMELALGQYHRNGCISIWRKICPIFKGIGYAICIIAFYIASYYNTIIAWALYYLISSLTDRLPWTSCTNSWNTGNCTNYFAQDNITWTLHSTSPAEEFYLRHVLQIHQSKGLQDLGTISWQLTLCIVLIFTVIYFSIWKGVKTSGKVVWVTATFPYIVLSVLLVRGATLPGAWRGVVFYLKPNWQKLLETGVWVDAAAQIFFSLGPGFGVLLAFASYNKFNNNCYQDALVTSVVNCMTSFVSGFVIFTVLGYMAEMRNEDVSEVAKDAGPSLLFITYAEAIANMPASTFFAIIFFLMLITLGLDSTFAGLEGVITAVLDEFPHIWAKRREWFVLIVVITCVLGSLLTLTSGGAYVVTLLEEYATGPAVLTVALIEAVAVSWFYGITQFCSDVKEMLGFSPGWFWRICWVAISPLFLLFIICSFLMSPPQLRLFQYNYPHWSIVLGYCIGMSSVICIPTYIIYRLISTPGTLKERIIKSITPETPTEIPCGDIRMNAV
T1 sequence (P23977 whole entry): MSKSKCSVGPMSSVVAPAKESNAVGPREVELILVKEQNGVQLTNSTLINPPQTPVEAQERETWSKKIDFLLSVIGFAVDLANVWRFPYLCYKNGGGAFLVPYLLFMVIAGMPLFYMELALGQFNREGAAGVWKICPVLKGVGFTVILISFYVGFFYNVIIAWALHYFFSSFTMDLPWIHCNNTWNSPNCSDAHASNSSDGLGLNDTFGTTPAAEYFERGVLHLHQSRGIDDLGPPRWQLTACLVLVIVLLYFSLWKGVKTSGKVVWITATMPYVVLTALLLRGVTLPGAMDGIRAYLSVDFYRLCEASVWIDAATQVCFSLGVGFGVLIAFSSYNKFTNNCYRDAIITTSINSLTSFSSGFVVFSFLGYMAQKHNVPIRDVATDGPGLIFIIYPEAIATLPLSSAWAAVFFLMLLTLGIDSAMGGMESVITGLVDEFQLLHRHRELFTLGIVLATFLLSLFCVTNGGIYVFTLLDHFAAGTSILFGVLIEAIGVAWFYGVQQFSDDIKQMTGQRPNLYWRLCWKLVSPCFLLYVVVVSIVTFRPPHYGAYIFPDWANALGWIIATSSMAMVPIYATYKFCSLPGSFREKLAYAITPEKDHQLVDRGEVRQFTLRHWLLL

Structure (SMILES) | IC50 [1] [µM] | IC50 [2] [µM] | IC50 [3] [µM] | IC50 [4] [µM]
O[C@@H]1CN(Cc2ccc(F)cc2)CC[C@H]1CCOC(c1ccccc1)c1ccccc1 (racemic) | 0.00322 | 1.03 | 2.36 | 0.00414
O=C1CN(Cc2ccc(F)cc2)CC[C@H]1CCOC(c1ccccc1)c1ccccc1 |  | 6.3 | 7.75 | 0.099
O[C@H]1CN(Cc2ccc(F)cc2)CC[C@H]1CCOC(c1ccccc1)c1ccccc1 (racemic) | 0.0101 | 2.15 | 3.31 | 0.0112
Fc1ccc(CN2CCC(CCOC(c3ccccc3)c3ccccc3)CC2)cc1 | 0.00248 |  |  | 
O[C@@H]1CN(Cc2ccc(F)cc2)CC[C@H]1CCOC(c1ccccc1)c1ccccc1 | 0.038 | 1.55 | 1.83 | 0.0567
CCC(=O)O[C@@H]1CN(Cc2ccc(F)cc2)CC[C@H]1CCOC(c1ccccc1)c1ccccc1 |  | 35.8 | 178 | 0.583
OC1CN(Cc2ccc(F)cc2)CC[C@@H]1CCOC(c1ccccc1)c1ccccc1 (stereo not given in full) | 0.00405 | 1.88 | 3.6 | 0.00046
Fc1ccc(CN2CC=C(CCOC(c3ccccc3)c3ccccc3)CC2)cc1 |  |  | 1.11 | 0.0378
